{"source": "ChEMBL document CHEMBL4706768", "about": "“Discovery of Potent, Selective Triazolothiadiazole-Containing c-Met Inhibitors” (ACS Med Chem Lett, 2021)", "key": {"[1]": {"target": "High affinity nerve growth factor receptor (Homo sapiens) (UniProt P04629)", "assay": "Inhibition of recombinant human N-terminal His6-tagged TRKA (440 to end residues) expressed in baculovirus infected Sf21 insect cells at 2 uM using KKKSPGEYVNIEFG as substrate relative to control"}, "[2]": {"target": "Dual specificity mitogen-activated protein kinase kinase 1 (Homo sapiens) (UniProt Q02750)", "sequence (Q02750 whole entry)": "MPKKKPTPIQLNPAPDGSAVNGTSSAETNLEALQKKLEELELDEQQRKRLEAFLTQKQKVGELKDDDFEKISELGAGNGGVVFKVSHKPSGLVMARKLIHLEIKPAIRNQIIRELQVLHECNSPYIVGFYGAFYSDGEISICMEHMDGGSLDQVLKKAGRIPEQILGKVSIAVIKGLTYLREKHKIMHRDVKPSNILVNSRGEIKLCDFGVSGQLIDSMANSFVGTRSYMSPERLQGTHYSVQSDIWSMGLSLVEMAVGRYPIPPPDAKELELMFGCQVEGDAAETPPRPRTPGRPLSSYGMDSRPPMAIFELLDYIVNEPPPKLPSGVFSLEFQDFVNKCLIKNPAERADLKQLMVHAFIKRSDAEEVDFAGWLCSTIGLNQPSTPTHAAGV", "assay": "Inhibition of recombinant human N-terminal GST-tagged/C-terminal His6-tagged full-length MEK1 expressed in Escherichia coli at 2 uM using MBP as substrate relative to control"}, "[3]": {"target": "Receptor-type tyrosine-protein kinase FLT3 (Homo sapiens, UniProt P36888)", "sequence (P36888 whole entry)": "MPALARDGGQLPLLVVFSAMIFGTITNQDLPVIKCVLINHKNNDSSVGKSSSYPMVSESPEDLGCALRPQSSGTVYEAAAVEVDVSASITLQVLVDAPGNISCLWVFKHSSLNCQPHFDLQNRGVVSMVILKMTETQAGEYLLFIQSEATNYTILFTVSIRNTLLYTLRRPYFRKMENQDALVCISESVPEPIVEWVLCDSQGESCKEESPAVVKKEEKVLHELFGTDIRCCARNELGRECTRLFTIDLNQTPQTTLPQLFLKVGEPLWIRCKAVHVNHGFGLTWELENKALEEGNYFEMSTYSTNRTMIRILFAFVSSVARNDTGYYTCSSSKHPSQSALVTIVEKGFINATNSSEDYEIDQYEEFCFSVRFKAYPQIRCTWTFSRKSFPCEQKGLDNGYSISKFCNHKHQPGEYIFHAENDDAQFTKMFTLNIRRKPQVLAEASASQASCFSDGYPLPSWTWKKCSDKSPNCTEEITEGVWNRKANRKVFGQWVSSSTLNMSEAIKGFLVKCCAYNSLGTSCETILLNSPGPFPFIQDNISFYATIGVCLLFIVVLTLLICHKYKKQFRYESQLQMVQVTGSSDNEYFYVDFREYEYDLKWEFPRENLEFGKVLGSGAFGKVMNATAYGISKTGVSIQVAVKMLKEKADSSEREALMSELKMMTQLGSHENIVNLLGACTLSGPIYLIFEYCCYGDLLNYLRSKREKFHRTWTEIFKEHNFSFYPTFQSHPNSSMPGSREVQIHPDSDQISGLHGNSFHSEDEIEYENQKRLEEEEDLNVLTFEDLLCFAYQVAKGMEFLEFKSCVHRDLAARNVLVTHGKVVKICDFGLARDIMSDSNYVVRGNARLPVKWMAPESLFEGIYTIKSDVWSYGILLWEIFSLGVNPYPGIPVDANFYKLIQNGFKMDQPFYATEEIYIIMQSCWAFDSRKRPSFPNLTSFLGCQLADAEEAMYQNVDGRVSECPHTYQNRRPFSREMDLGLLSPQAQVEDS", "assay": "Inhibition of FLT3 (unknown origin)"}, "[4]": {"target": "Insulin receptor-related protein (Homo sapiens) (UniProt P14616)", "assay": "Inhibition of recombinant human N-terminal His6-tagged IRR (944 to 1266 residues) expressed in baculovirus infected Sf21 insect cells at 2 uM using MBP (13-104) as substrate relative to control"}, "[5]": {"target": "Mitogen-activated protein kinase kinase kinase 5 (Homo sapiens) (UniProt Q99683)", "assay": "Inhibition of recombinant N-terminal GST-tagged/C-terminal His6-tagged human ASK1 (649 to 946 residues) expressed in Escherichia coli at 2 uM using MBP as substrate relative to control"}, "[6]": {"target": "Tyrosine-protein kinase ABL1 (Homo sapiens) (UniProt P00519)", "assay": "Inhibition of recombinant N-terminal His6-tagged human ABL (27 to end residues) expressed in baculovirus infected Sf21 insect cells at 2 uM using Abltide as substrate relative to control"}, "[7]": {"target": "Proto-oncogene tyrosine-protein kinase Src (Homo sapiens, UniProt P12931)", "assay": "Inhibition of SRC (unknown origin)"}, "[8]": {"target": "Fibroblast growth factor receptor 3 (Homo sapiens) (UniProt P22607)", "assay": "Inhibition of recombinant human N-terminal His6-tagged FGFR3 (447 to 761 residues) expressed in Sf21 insect cells at 2 uM using poly (Glu,Tyr) (4:1) as substrate relative to control"}, "[9]": {"target": "Ribosomal protein S6 kinase alpha-2 (Homo sapiens) (UniProt Q15349)", "assay": "Inhibition of recombinant human N-terminal full-length His6-tagged RSK3 ([…]) expressed in Sf21 insect cells at 2 uM using MAPKAP Kinase 2 as substrate relative to control"}, "[10]": {"target": "Ephrin type-B receptor 4 (Homo sapiens) (UniProt P54760)", "assay": "Inhibition of recombinant human N-terminal GST-tagged EphB4 (561 to end residues) expressed in baculovirus infected Sf21 insect cells at 2 uM using poly (Glu,Tyr) (4:1) as substrate relative to control"}, "[11]": {"target": "Protein kinase C theta type (Homo sapiens) (UniProt Q04759)", "assay": "Inhibition of recombinant human full-length C-terminal His6-tagged PKCtheta expressed in Sf21 insect cells at 2 uM using Histone H1 as substrate relative to control"}, "[12]": {"assay": "Inhibition of GSK3 (unknown origin)", "set-up": "species or system Homo sapiens"}, "[13]": {"assay": "Inhibition of PI3K (unknown origin)", "set-up": "species or system Homo sapiens"}, "[14]": {"target": "Proto-oncogene tyrosine-protein kinase receptor Ret (Homo sapiens) (UniProt P07949)", "assay": "Inhibition of recombinant human N-terminal GST-tagged RET (658 to end residues) expressed in baculovirus infected Sf21 insect cells at 2 uM using IFG1Rtide as substrate relative to control"}, "[15]": {"target": "Angiopoietin-1 receptor (Homo sapiens) (UniProt Q02763)", "sequence (Q02763 whole entry)": "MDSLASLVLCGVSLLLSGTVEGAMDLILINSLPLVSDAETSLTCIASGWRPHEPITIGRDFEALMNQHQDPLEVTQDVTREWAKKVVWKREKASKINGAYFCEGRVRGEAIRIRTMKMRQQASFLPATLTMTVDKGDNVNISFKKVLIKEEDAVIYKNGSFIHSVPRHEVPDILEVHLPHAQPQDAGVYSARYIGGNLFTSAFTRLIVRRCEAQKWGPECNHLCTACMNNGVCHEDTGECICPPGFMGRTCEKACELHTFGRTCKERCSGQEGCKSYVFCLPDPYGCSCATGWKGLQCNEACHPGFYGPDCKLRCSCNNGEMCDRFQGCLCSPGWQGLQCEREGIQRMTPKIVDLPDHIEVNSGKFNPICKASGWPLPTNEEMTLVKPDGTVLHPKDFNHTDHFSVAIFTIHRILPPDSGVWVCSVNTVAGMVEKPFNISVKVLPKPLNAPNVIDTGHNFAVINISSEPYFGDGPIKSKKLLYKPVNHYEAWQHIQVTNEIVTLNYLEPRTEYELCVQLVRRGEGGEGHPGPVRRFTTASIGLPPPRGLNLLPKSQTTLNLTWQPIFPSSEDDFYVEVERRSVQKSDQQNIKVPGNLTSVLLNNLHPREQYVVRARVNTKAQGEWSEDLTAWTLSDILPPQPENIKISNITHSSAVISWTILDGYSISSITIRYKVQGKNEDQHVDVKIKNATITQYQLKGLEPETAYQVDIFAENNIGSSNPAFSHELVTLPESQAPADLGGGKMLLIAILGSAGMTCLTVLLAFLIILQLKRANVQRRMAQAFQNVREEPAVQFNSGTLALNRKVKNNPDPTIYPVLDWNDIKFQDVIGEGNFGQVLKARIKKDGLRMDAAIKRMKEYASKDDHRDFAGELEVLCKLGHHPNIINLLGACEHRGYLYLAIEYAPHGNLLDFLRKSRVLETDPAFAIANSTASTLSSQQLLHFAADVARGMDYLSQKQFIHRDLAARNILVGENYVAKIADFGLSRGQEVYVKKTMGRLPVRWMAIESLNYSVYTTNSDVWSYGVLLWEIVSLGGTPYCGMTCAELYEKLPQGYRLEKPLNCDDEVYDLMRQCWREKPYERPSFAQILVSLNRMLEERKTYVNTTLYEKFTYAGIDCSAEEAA", "assay": "Inhibition of recombinant human N-terminal His6-tagged TIE2 (771 to end residues) expressed in baculovirus infected Sf21 insect cells at 2 uM using poly (Glu4-Tyr) (4:1) as substrate relative to control"}, "[16]": {"target": "Tyrosine-protein kinase Lck (Homo sapiens) (UniProt P06239)", "sequence (P06239 2-509 limits assumed)": "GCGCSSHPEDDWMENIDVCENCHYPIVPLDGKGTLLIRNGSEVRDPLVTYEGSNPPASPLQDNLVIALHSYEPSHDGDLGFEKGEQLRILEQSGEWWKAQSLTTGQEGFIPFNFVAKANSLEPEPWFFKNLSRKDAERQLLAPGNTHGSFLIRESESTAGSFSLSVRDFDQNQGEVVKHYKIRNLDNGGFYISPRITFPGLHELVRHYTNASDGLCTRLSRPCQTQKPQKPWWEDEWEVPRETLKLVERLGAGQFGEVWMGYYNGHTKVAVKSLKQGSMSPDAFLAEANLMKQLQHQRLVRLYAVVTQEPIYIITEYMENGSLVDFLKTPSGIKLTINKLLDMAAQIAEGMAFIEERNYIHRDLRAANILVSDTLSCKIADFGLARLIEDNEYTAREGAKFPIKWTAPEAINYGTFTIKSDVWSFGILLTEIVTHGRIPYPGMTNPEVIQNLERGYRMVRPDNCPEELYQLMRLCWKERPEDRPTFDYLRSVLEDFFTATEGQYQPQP", "assay": "Inhibition of recombinant human full-length N-terminal His6-tagged LCK expressed in baculovirus infected Sf21 insect cells at 2 uM relative to control"}, "[17]": {"species_on_record": "Homo sapiens", "assay": "Selectivity ratio of IC50 for inhibition of recombinant human N-terminal GST/His-tagged PDE3A (669 to 1141 residues) expressed in baculovirus infected Sf9 insect cells to IC50 for inhibition of c-MET in human SNU-5 cells"}, "[18]": {"target": "Hepatocyte growth factor receptor (Homo sapiens, UniProt P08581)", "assay": "Inhibition of c-Met (unknown origin) using poly Glu-Tyr as substrate preincubated for 10 mins followed by ATP addition by phosphoenolpyruvate/pyruvate kinase/lactate dehydrogenase coupled radiometric assay"}, "[19]": {"target": "cGMP-inhibited 3',5'-cyclic phosphodiesterase 3A (Homo sapiens, UniProt Q14432)", "assay": "Inhibition of recombinant human N-terminal GST/His-tagged PDE3A (669 to 1141 residues) expressed in baculovirus infected Sf9 insect cells using iFL-cAMP as substrate preincubated for 15 mins followed by substrate addition and measured after 40 mins by fluorescence assay"}, "[20]": {"target": "Serine/threonine-protein kinase 3 (Homo sapiens) (UniProt Q13188)", "assay": "Inhibition of recombinant human N-terminal His6-tagged MST2 (2 to end residues) expressed in baculovirus infected Sf21 insect cells at 2 uM using MBP as substrate relative to control"}, "[21]": {"assay": "Unbound intrinsic clearance in human hepatocytes assessed per million cells", "type": "ADME, cell-based, Hepatocyte"}, "[22]": {"target": "Tyrosine-protein kinase BTK (Homo sapiens) (UniProt Q06187)", "sequence (Q06187 whole entry)": "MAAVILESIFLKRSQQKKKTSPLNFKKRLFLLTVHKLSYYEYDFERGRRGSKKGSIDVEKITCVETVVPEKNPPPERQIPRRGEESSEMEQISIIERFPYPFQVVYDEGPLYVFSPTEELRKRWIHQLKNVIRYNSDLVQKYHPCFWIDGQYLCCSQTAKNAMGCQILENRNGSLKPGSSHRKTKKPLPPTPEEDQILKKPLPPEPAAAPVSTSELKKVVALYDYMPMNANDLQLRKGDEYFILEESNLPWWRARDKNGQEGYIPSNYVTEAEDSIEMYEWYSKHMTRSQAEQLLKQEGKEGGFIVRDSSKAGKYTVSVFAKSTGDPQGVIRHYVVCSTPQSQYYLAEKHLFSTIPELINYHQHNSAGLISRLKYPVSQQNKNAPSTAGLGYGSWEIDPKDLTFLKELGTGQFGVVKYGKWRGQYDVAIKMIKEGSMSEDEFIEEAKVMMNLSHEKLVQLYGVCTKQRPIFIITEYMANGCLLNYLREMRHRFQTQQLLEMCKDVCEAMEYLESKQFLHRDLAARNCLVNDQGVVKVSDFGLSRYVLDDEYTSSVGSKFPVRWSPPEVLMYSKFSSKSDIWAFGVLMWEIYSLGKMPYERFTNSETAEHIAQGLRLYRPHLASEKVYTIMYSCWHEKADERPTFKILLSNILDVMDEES", "assay": "Inhibition of recombinant N-terminal His6-tagged human full-length BTK expressed in Sf21 insect cells at 2 uM using Src peptide as substrate relative to control"}, "[23]": {"target": "Serine/threonine-protein kinase Nek2 (Homo sapiens) (UniProt P51955)", "assay": "Inhibition of recombinant human N-terminal His6-tagged NEK2 expressed in baculovirus infected Sf21 insect cells at 2 uM using MBP as substrate relative to control"}, "[24]": {"target": "Tyrosine-protein kinase Fes/Fps (Homo sapiens) (UniProt P07332)", "sequence (P07332 whole entry)": "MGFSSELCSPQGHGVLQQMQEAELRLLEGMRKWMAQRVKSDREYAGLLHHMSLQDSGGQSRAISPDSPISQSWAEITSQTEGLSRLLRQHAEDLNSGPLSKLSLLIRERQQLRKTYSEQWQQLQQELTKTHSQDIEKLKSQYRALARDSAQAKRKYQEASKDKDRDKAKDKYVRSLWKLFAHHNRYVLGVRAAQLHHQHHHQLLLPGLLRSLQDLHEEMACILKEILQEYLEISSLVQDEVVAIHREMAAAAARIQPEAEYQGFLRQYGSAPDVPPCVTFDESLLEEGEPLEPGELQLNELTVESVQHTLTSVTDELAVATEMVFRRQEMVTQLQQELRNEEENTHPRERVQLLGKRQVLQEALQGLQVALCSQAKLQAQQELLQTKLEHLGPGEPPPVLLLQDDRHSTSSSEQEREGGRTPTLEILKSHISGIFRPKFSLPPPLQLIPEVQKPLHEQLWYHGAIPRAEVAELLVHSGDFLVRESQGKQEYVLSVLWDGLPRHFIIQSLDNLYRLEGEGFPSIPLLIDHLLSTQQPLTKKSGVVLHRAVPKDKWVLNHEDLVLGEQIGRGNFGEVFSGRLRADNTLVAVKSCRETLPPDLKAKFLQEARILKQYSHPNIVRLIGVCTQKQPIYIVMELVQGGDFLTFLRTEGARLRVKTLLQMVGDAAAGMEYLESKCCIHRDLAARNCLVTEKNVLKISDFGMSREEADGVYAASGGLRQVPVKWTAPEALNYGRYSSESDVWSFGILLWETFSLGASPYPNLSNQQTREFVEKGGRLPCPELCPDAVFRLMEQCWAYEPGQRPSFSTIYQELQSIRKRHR", "assay": "Inhibition of recombinant human N-terminal His6-tagged FES (561 to end residues) expressed in baculovirus infected Sf21 insect cells at 2 uM using poly (Glu,Tyr) (4:1) as substrate relative to control"}, "[25]": {"target": "Rho-associated protein kinase 2 (Homo sapiens) (UniProt O75116)", "assay": "Inhibition of recombinant human N-terminal GST-tagged ROCK2 (5 to 554 residues) expressed in baculovirus infected Spodoptera frugiperda insect cells at 2 uM using KRRRLASLR as substrate relative to control"}, "[26]": {"target": "Epidermal growth factor receptor (Homo sapiens) (UniProt P00533)", "assay": "Inhibition of recombinant human N-terminal GST-tagged EGFR (696 to end residues) expressed in baculovirus infected Sf21 insect cells at 2 uM using angiotensin II peptide as substrate relative to control"}, "[27]": {"target": "Insulin-like growth factor 1 receptor (Homo sapiens) (UniProt P08069)", "assay": "Inhibition of recombinant human N-terminal His6-tagged IGF1R (959 to end residues) expressed in baculovirus infected Sf21 insect cells at 2 uM relative to control"}, "[28]": {"species_on_record": "Homo sapiens", "assay": "Inhibition of CK1 (unknown origin) at 2 uM relative to control"}, "[29]": {"target": "Serine/threonine-protein kinase Chk1 (Homo sapiens) (UniProt O14757)", "sequence (O14757 whole entry)": "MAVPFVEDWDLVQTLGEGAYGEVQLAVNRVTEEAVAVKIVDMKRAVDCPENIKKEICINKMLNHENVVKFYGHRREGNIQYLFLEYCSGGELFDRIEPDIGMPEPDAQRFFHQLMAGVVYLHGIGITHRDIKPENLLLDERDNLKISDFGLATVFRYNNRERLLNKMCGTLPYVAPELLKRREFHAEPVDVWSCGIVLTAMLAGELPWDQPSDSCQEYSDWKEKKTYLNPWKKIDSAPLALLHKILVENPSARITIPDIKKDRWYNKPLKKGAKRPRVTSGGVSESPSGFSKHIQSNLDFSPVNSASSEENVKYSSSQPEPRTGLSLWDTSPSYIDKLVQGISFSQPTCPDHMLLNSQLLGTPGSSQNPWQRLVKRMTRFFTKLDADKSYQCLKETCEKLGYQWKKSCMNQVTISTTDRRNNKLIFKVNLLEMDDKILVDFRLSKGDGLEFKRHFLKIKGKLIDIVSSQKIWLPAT", "assay": "Inhibition of recombinant human N-terminal GST-tagged full-length CHK1 expressed in Sf21 insect cells at 2 uM using CHKtide as substrate relative to control"}}, "data": [{"smiles": "C[C@@H](c1ccc2ncccc2c1)c1nnc2sc(-c3cnn(C)c3)nn12", "values": [{"measurement": "inhibition", "setting": "[1]", "value": "< 50", "unit": "%"}, {"measurement": "inhibition", "setting": "[2]", "value": "< 50", "unit": "%"}, {"measurement": "Ki", "setting": "[3]", "value": "> 4000", "unit": "nM"}, {"measurement": "inhibition", "setting": "[4]", "value": "< 50", "unit": "%"}, {"measurement": "inhibition", "setting": "[5]", "value": "< 50", "unit": "%"}, {"measurement": "inhibition", "setting": "[6]", "value": "< 50", "unit": "%"}, {"measurement": "Ki", "setting": "[7]", "value": "> 4000", "unit": "nM"}, {"measurement": "inhibition", "setting": "[8]", "value": "< 50", "unit": "%"}, {"measurement": "inhibition", "setting": "[9]", "value": "< 50", "unit": "%"}, {"measurement": "inhibition", "setting": "[10]", "value": "< 50", "unit": "%"}, {"measurement": "inhibition", "setting": "[11]", "value": "< 50", "unit": "%"}, {"measurement": "Ki", "setting": "[12]", "value": "> 4000", "unit": "nM"}, {"measurement": "Ki", "setting": "[13]", "value": "> 4000", "unit": "nM"}, {"measurement": "inhibition", "setting": "[14]", "value": "< 50", "unit": "%"}, {"measurement": "inhibition", "setting": "[15]", "value": "< 50", "unit": "%"}, {"measurement": "inhibition", "setting": "[16]", "value": "< 50", "unit": "%"}, {"measurement": "Ratio IC50", "setting": "[17]", "value": 25}, {"measurement": "Ki", "setting": "[18]", "value": 20, "unit": "nM"}, {"measurement": "IC50", "setting": "[19]", "value": 500, "unit": "nM"}, {"measurement": "inhibition", "setting": "[20]", "value": "< 50", "unit": "%"}, {"measurement": "CL free", "setting": "[21]", "value": 5.1, "unit": "µL/min"}, {"measurement": "inhibition", "setting": "[22]", "value": "< 50", "unit": "%"}, {"measurement": "inhibition", "setting": "[23]", "value": "< 50", "unit": "%"}, {"measurement": "inhibition", "setting": "[24]", "value": "< 50", "unit": "%"}, {"measurement": "inhibition", "setting": "[25]", "value": "< 50", "unit": "%"}, {"measurement": "inhibition", "setting": "[26]", "value": "< 50", "unit": "%"}, {"measurement": "inhibition", "setting": "[27]", "value": "< 50", "unit": "%"}, {"measurement": "inhibition", "setting": "[28]", "value": "< 50", "unit": "%"}, {"measurement": "inhibition", "setting": "[29]", "value": "< 50", "unit": "%"}]}]}
